Measurements published in patent US20240252677A1, “ONE-COMPONENT DELIVERY SYSTEM FOR NUCLEIC ACIDS” (The Trustees of the University of Pennsylvania, priority 2021, published 2024).

How the values were obtained:
[1] = Stability of DNPs by DLS after storage at 5° C.; format: physicochemical; set-up: key to Original size distribution type (DLS curve) / Size distribution type (DLS curve): U: DLS curve showed unimodal size distribution; B: DLS curve showed bimodal size distribution; M: DLS curve showed multimodal size distribution; settings: for pH Sample: DNPs: IAJD 4.0 mg/mL + Luc-mRNA 0.1 mg/mL, injection in acetate buffer pH 4.00; for PDI / Size (d, nm) / Original size distribution type (DLS curve): IAJD 4.0 mg/mL + Luc-mRNA 0.1 mg/mL; for PDI / Size (d, nm): acetate buffer; for Original size distribution type (DLS curve): before storage, acetate buffer pH 4.00
Procedure: The stability of the DNPs as assayed by DLS. All the samples are prepared in acetate buffer. The stabilities of the constructs were ranked: Excellent (in bold)—the original sizes and distribution remains almost the same after storage; Good—the original relatively big sizes became smaller or broad size distribution became narrower; Not stable—the original relatively big sizes or broad size distribution remained almost the similar level, or the original relatively small sizes became bigger or narrow size distribution became broader.

[2] = Dimensions (size, PDI) of DNPs co-assembled from IAJDs and Luc-mRNA by DLS; format: physicochemical
Procedure: Dynamic Light Scattering (DLS) for the DNPs was performed in buffer with a Malvern Instruments particle sizer (Zetasizer Nano S, Malvern Instruments, UK) equipped with 4 mW He—Ne laser 633 nm and avalanche photodiode positioned at […] to the beam and temperature-controlled cuvette holder. Instrument parameters were determined automatically along with measurement times.
Formulation of DNPs Containing mRNA-Luc: IAJDs were dissolved in ethanol with various initial concentrations (5-160 mg/mL). Nucleoside-modified mRNA encoding firefly luciferase (mRNA-Luc) was dissolved in water with various initial concentrations (1-4 mg/mL). 12.5 μL of mRNA solution was placed into a clean RNAs free eppendorf (1.5 mL) and mixed with 463 μL of citrate buffer (10 mM, pH 3.0)/acetate buffer (10 mM). For encapsulation of mRNA into IAJDs, 25 μL of IAJDs of the ethanol stock solution was rapidly injected into mRNA solution in citrate or acetate buffer followed by vortex for 5 seconds.
(§1) Dynamic Light Scattering (DLS) for the sizes and polydispersities of DNPs was performed on a Malvern Instruments particle sizer (Zetasizer Nano S, Malvern Instruments, UK) equipped with 4 mW He—Ne laser 633 nm and avalanche photodiode positioned at 1750 to the beam and temperature-controlled cuvette holder. Instrument parameters were determined automatically along with measurement times. Sample solution (0.4 mL) was placed in a semi-micro cuvette (1.6 mL, polystyrene, 10×10×45 mm, manufactured by Greiner Bio-One) and the measurements were performed at 23° C.
Formulation of DNPs obtained by co-assembly of IAJDs and Luc-mRNA was performed as follows. IAJDs were dissolved in ethanol with an initial concentration of 80 mg/mL. Nucleoside-modified mRNA encoding firefly luciferase (Luc-mRNA) was dissolved in UltraPure DNase/RNase-free distilled water with an initial concentration of 4.0 mg/mL. 12.5 μL of Luc-mRNA solution was placed into a clean RNAs free eppendorf (1.5 mL) and 463 μL acetate buffer (10 mM, pH 4.0) was added. Then, 25 μL of IAJD in the ethanol stock solution was rapidly injected into the Luc-mRNA solution in acetate buffer followed by vortex for 5 seconds.
as §1, with “dimensions (sizes” for “sizes”, “polydispersities)” for “polydispersities”, “175°” for “1750”, “set up” for “determined”, “(c.a. 0.4” for “(0.4”, “mm,” for “mm, manufactured by”
Formulation of DNPs Co-assembled from IAJDs and Luc-mRNA: nucleoside-modified mRNA encoding firefly luciferase (Luc-mRNA) was dissolved in UltraPure DNase/RNase-free distilled water with an initial concentration of 4.0 mg/mL. IAJD molecules were dissolved in ethanol with an initial concentration of 80 mg/mL. 12.5 μL of Luc-mRNA solution was taken and placed into a clean RNAs free eppendorf (1.5 mL). Then 463 μL of acetate buffer (10 mM, pH 4.0) was added. Afterwards, 25 μL of IAJD in the ethanol stock solution was taken and rapidly injected into the above Luc-mRNA solution in acetate buffer followed by vortex for 5 seconds.

[3] = Table 16, DNPs from IAJD 4 mg/mL and Luc-mRNA 0.10 mg/mL by injection in acetate buffer (10 mM, pH 4.0)
[4] = Table 17, DNPs used in vivo, IAJD 4 mg/mL, Luc-mRNA 0.10 mg/mL, acetate pH 4.0

Row | SMILES | pH Sample [1] | Original size distribution type (DLS curve) [1] | PDI [2, 3] | Size (d, nm) [2, 3] [nm] | PDI [2, 4] | Size (d, nm) [2, 4] [nm] | other results
1 | CCCCCCCCCCCCOc1cc(COC(=O)CCCN2CCN(CCO)CC2)cc(OCCCCCCCCCCC)c1 [IAJD 124, 3-(Dodecyloxy)-5-(undecyloxy)benzyl 4-(4-(2-hydroxyethyl)piperazin-1-yl)butanoate] | 4.51 | (U) | 0.280 | 276 | 0.280 | 276 | Size distribution type (DLS curve) ([1]; after 62 days at 5° C.): (B); PDI ([1]; after 62 days at 5° C.): 0.240; Size (d, nm) ([1]; after 62 days at 5° C.): 284 nm
2 | CCCCCCCCCCCCCCCOc1cc(COC(=O)CCCN2CCN(CCO)CC2)cc(OCCCCCCCC)c1 [IAJD 138, 3-(Octyloxy)-5-(pentadecyloxy)benzyl 4-(4-(2-hydroxyethyl)piperazin-1-yl)butanoate] | 4.52 | (U) | 0.305 | 99 | 0.305 | 99 | Size distribution type (DLS curve) ([1]; after 35 days at 5° C.): (B); PDI ([1]; after 35 days at 5° C.): 0.261; Size (d, nm) ([1]; after 35 days at 5° C.): 112 nm
3 | CCCCCCCCCCCCOc1cc(COC(=O)c2cc(OCCOCCOCCCC(=O)CCCN3CCCCC3)c(OCCOCCOCCOCc3ccccc3)c(OCCOCCOCCOC(=O)CCCN3CCCCC3)c2)cc(OCCCCCCCCCCCC)c1 [IAJD 110] | 4.91 | (U) | 0.274 | 111 | 0.274 | 111 | Size distribution type (DLS curve) ([1]; after 75 days at 5° C.): (U); PDI ([1]; after 75 days at 5° C.): 0.222; Size (d, nm) ([1]; after 75 days at 5° C.): 103 nm
4 | CCCCCCCCCCCOc1cc(COC(=O)CCCN2CCN(CCO)CC2)cc(OCCCCCCCCCC)c1 [IAJD 115, 3-(Decyloxy)-5-(undecyloxy)benzyl 4-(4-(2-hydroxyethyl)piperazin-1-yl)butanoate] | 4.44 | (U) | 0.367 | 123 | 0.367 | 123 | Size distribution type (DLS curve) ([1]; after 70 days at 5° C.): (U); PDI ([1]; after 70 days at 5° C.): 0.383; Size (d, nm) ([1]; after 70 days at 5° C.): 134 nm
5 | CCCCCCCCCCCOc1cc(COC(=O)CCCN2CCN(CCO)CC2)cc(OCCCCCCCCC)c1 [IAJD 122, 3-(Nonyloxy)-5-(undecyloxy)benzyl 4-(4-(2-hydroxyethyl)piperazin-1-yl)butanoate] | 4.49 | (B) | 0.337 | 215 | 0.337 | 215 | Size distribution type (DLS curve) ([1]; after 62 days at 5° C.): (B); PDI ([1]; after 62 days at 5° C.): 0.346; Size (d, nm) ([1]; after 62 days at 5° C.): 192 nm
6 | CCCCCCCCCCCOc1cc(COC(=O)c2cc(OCCOCCOCCCC(=O)CCCN3CCCCC3)c(OCCOCCOCCOCc3ccccc3)c(OCCOCCOCCOC(=O)CCCN3CCCCC3)c2)cc(OCC(CC)CCCC)c1 (stereo not drawn) [IAJD 155] | 4.93 | (U) | 0.279 | 83 | 0.279 | 83 | Size distribution type (DLS curve) ([1]; after 19 days at 5° C.): (U); PDI ([1]; after 19 days at 5° C.): 0.259; Size (d, nm) ([1]; after 19 days at 5° C.): 86 nm
7 | CCCCCCCCCCCCCCCCCOc1cc(COC(=O)c2cc(OCCOCCOCCCC(=O)CCCN3CCCCC3)c(OCCOCCOCCOCc3ccccc3)c(OCCOCCOCCOC(=O)CCCN3CCCCC3)c2)cc(OCCCCCCCCCCC)c1 [IAJD 158] | 4.83 | (U) | 0.246 | 75 | 0.246 | 75 | Size distribution type (DLS curve) ([1]; after 19 days at 5° C.): (U); PDI ([1]; after 19 days at 5° C.): 0.258; Size (d, nm) ([1]; after 19 days at 5° C.): 77 nm
